Patent publication US10815244B2, “Isoidide derivatives and methods of making and using same” (Rutgers, the State University of New Jersey, priority 2015, dated 2020)

Molecular target: EGFR kinase (Homo sapiens (Human), UniProt P00533)
Test: EGFR kinase activity, luminescent ATP/ADP detection assay
Assay type: biochemical
Details: purified EGFR kinase, 10 min incubation, luminescence ADP detection
Experimental: Example RR: EGFR as a Drug Target Assay Conditions
The IC50s of the compounds on EGFR activity were determined using the Luminescent ATP/ADP detection assay system. Briefly, the assay method measures ADP formed from EGFR kinase activity using luminescence derived from ATP-Luciferase detection system. Purified EGFR kinase was incubated with different concentrations of test compound in the kinase reaction buffer for 10 min. The reaction was stopped by depleting the unused ATP in the kinase reaction buffer using the depletion buffer for 40 min. The levels of ADP generated during the kinase reaction was detected by measuring the luminescence using the Luciferase system.

EGFR kinase, sequence (P00533 25-1210): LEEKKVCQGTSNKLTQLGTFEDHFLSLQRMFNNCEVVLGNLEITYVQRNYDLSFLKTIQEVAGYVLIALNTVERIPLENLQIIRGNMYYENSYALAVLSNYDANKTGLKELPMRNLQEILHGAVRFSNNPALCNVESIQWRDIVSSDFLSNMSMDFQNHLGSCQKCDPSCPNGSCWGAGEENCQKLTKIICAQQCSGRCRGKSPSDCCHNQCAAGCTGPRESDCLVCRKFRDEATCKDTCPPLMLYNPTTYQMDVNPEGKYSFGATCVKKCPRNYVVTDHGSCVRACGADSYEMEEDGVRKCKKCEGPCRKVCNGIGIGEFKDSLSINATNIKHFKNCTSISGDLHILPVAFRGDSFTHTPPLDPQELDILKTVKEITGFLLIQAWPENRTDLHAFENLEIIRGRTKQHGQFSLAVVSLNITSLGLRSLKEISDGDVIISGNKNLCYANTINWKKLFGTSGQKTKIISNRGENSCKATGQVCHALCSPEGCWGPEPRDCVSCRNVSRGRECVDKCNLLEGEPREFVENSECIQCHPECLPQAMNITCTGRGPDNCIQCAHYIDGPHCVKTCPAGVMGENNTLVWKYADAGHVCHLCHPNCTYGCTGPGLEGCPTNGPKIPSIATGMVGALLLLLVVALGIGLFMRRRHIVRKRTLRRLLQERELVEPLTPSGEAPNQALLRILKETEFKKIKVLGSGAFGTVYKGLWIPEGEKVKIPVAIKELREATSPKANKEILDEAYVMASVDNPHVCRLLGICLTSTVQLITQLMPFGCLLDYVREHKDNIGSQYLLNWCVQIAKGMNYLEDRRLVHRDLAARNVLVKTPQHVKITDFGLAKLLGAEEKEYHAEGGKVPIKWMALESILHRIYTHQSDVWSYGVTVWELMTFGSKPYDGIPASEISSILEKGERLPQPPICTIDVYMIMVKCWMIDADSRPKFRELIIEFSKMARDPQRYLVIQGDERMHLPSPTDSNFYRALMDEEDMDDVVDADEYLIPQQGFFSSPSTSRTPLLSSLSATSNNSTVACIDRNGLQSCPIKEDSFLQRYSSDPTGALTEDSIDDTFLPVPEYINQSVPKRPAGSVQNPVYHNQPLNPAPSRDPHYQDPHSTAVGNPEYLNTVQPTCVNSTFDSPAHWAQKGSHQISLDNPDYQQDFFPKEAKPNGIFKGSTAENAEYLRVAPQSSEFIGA

`COc1cc2ncnc(Nc3ccc(O[C@H]4CO[C@H]5[C@@H]4OC[C@@H]5OC(C)=O)cc3)c2cc1OC` [Example X, [(3S,3aR,6S,6aR)-3-[4-[(6,7-dimethoxyquinazolin-4-yl)amino]phenoxy]-2,3,3a,5,6,6a-hexahydrofuro[3,2-b]furan-6-yl] acetate] and `COc1cc2ncnc(Nc3ccc(O[C@H]4CO[C@H]5[C@@H]4OC[C@@H]5OC(C)=O)c(Cl)c3)c2cc1OC` [Example BB, [(3S,3aR,6S,6aR)-3-[2-chloro-4-[(6,7-dimethoxyquinazolin-4-yl)amino]phenoxy]-2,3,3a,5,6,6a-hexahydrofuro[3,2-b]furan-6-yl] acetate] cannot be ordered by IC50: > 0.5 µM for the first, > 0.5 µM for the second.

`COc1cc2ncnc(Nc3ccc(O[C@H]4CO[C@H]5[C@@H]4OC[C@@H]5OC(=O)c4ccccc4)c(Cl)c3)c2cc1OC` [Example DD, [(3S,3aR,6S,6aR)-3-[2-chloro-4-[(6,7-dimethoxyquinazolin-4-yl)amino]phenoxy]-2,3,3a,5,6,6a-hexahydrofuro[3,2-b]furan-6-yl] benzoate] and `COc1cc2ncnc(Nc3ccc(O[C@H]4CO[C@H]5[C@@H]4OC[C@@H]5OCc4ccccc4)c(Cl)c3)c2cc1OC` [Example AA, N-[4-[[(3S,3aR,6S,6aR)-3-benzyloxy-2,3,3a,5,6,6a-hexahydrofuro[3,2-b]furan-6-yl]oxy]-3-chloro-phenyl]-6,7-dimethoxy-quinazolin-4-amine] cannot be ordered by IC50: > 0.1 µM for the first, > 0.1 µM for the second.

In the case of `COc1cc2ncnc(Nc3ccc(O[C@H]4CO[C@H]5[C@@H]4OC[C@@H]5O)c(Cl)c3)c2cc1OC` [Example T, (3S,3aR,6S,6aR)-6-[2-chloro-4-[(6,7-dimethoxyquinazolin-4-yl)amino]phenoxy]-2,3,3a,5,6,6a-hexahydrofuro[3,2-b]furan-3-ol], the IC50 is reported as > 0.1 µM.

`O[C@H]1CO[C@H]2[C@@H]1OC[C@@H]2Oc1ccc(Nc2ccnc(Nc3ccc(O[C@H]4CO[C@H]5[C@@H]4OC[C@@H]5O)c(Cl)c3)n2)cc1Cl` [Example W, (3S,3aR,6S,6aR)-6-[4-[[2-[4-[[(3S,3aR,6S,6aR)-3-hydroxy-2,3,3a,5,6,6a-hexahydrofuro[3,2-b]furan-6-yl]oxy]-3-chloro-anilino]pyrimidin-4-yl]amino]-2-chloro-phenoxy]-2,3,3a,5,6,6a-hexahydrofuro[3,2-b]furan-3-ol] was tested, and the “EGFR IC50” value was “Inactive”.
In the case of `CS(=O)(=O)N1CCC(Nc2nccc(O[C@H]3CO[C@H]4[C@@H]3OC[C@@H]4OC(=O)c3ccccc3)n2)CC1` [Example JJ, [(3S,3aR,6S,6aR)-3-[2-[(1-methylsulfonyl-4-piperidyl)amino]pyrimidin-4-yl]oxy-2,3,3a,5,6,6a-hexahydrofuro[3,2-b]furan-6-yl] benzoate], the “EGFR IC50” value is reported as “Inactive”.
